Results reported in patent publication US12599597B2, “Substituted N-benzhydrylacetamide inhibitors of jumanji domain histone demethylases for the treatment of cancer” (University of Kentucky Research Foundation, priority 2020, dated 2026).

Key:
Wnt signaling = test: Zebrafish Wnt signaling models; assay type: in vivo
From the text: FIGS. 1A-F show a KDM3A inhibitor, called “58B1,” that inhibited Wnt signaling in vitro and in vivo. (A) Docking of 58B1 to the Jumonji domain. (B) 58B1 inhibited KDM3A enzymatic activity in vitro. (C) KDM3A was overexpressed in CRC. (D) 58B1 increased repressor markers, H3K9Me^2 and K3K9Me^3. (E) 58B1 inhibited Wnt target genes in CRC cells. (F) 58B1 inhibited Wnt signaling in a transgenic zebrafish model. In this model, GFP was control by a Wnt-responsive promoter. In the control fish, GFP was expressed in the tail, where has higher levels on Wnt signaling. 58B1 treatment abolished GFP expression in the tail.
CBA-1 inhibited Wnt signaling in Zebrafish models. Zebrafish provide a well-established in vivo model to study Wnt signaling. Wnt signaling is active in the tail of the larvae during development (FIG. 4), and CBA-1 inhibited Wnt signaling in the tail. […] To rule out the possibility that CBA-1 inhibits the Wnt-mediated phenotype through nonspecific or even toxic effects, an eye-rescue experiment was performed.

SW620 = test: Colon cancer cell proliferation; assay type: cell-based; settings: SW620 (APC mutation); 5d, Vi-Cell viability assay
From the text: (§1) FIGS. 5A-B show an image and graph illustrating validation of CBA-1. (A) CBA-1 repressed Wnt targets in LS174T CRC cells. (B) CBA-1 inhibited CRC cell proliferation (5d, Vi-Cell viability assay).
(§2) Identification of a CBA-1 as a novel Wnt inhibitor. The present inventors routinely use TOPFlash reporter assay for Wnt inhibitor screening. To mimic the constitutively active Wnt signaling found in CRC cells, Wnt signaling was activated by inhibiting GSK3 and stabilizing β-catenin. From screening in house small-molecule libraries, CBA-1 (FIG. 4) was identified that inhibited Wnt signaling in TOPFlash reporter assay. To validate the screening results, CBA-1 was tested in CRC cells.

[1] = tested on: histone methylation in HEK293T cells; test: Histone methylation in HEK293T cells; assay type: cell-based; settings: 5 μM
Protocol: To determine if 58B1 regulates Wnt signaling through epigenetic mechanism, the effects of 58B1 on histone methylation were analyzed. […] Similar results were found in LS174T colon cancer cells. H3K9 and H3K27 methylations are negative regulators of transcription. Without wishing to be bound by theory, it is believed that 58B1 inhibited Wnt signaling by increasing H3K9 or H3K27 methylation on Wnt target gene promotors.

KDM3B = KDM3B (Homo sapiens, UniProt Q7LBC6); test: KDM3B enzymatic activity; assay type: biochemical; settings: at 10 μM
From the text: Other KDM3 members as CBA-1 targets. Inhibition of KDM3A by CBA-1 increased H3K9Me^2 and inhibited Wnt signaling; however, other KDM3 members may also regulate H3K9 methylation. For example, both KDM3B and KDM3C (JMJD1C) regulated Wnt signaling. Given the high similarity of their structures (FIG. 10A), particularly the JmjC domains, it is believed that CBA-1 would inhibit KDM3B and KDM3C as well. […] CBA-1 coordinated with Mn^2+ at a longer distance in KDM3B (3.9 Å) than the distance in KDM3A (2.8 Å) (FIGS. 8B and 10B). This could be one of the reasons that CBA-1 inhibited KDM3A better than KDM3B.
Repurposing drugs as CBA-1 analogs and KDM3 inhibitors. CBA-1 is a specific and potent KDM3A inhibitor. As backup candidates, two approved drugs were identified as CBA-1 analogs and KDM3A inhibitors. Based on the docking study (FIGS. 8A-B), the N and OH groups (red color in FIG. 12A) are critical in binding the Mn^2+ in KDM3A. […] A virtual screening was performed and several antibiotics that have similar structures were identified. Two of these antibiotics, clioquinol and nitroxoline (FIG. 12B), indeed inhibited the enzymatic activities of KDM3 (FIGS. 12C and D). These two drugs were tested in LS174T tumor xenograft model in SCID mice. […] Nitroxoline has been used in Europe for over 50 years as an antibiotic. It has anticancer effects, but the mechanism remains unclear.

DLD1 = test: Colon cancer cell proliferation; assay type: cell-based
Protocol: as §1
(§3) The effects of these compounds on proliferation of colon cancer cell line LS174T and DLD1 were analyzed.
as §2

LS174T = test: Colon cancer cell proliferation; assay type: cell-based
Protocol: as §1, §3, §2

[2] = tested on: histone methylation in CRC cells; test: Histone methylation in CRC cells; assay type: cell-based
From the text: CBA-1 increased repressive histone methylation on Wnt target genes. The present inventors reported that mutations in APC or β-catenin N-terminal phosphorylation sites prevented β-catenin degradation in CRC cells. […] Because CBA-1 inhibited Wnt signaling in CRC cells, it was reasonable to assume that it inhibited Wnt signaling downstream of β-catenin, most likely by blocking β-catenin activity in the nucleus. Consequently, the present inventors hypothesized that CBA-1 inhibited Wnt signaling epigenetically by altering chromatin remodeling, and they probed the effects of CBA-1 on histone methylation in CRC cells.

Sequence of KDM3B (Q7LBC6 whole entry, the tested form may be a part): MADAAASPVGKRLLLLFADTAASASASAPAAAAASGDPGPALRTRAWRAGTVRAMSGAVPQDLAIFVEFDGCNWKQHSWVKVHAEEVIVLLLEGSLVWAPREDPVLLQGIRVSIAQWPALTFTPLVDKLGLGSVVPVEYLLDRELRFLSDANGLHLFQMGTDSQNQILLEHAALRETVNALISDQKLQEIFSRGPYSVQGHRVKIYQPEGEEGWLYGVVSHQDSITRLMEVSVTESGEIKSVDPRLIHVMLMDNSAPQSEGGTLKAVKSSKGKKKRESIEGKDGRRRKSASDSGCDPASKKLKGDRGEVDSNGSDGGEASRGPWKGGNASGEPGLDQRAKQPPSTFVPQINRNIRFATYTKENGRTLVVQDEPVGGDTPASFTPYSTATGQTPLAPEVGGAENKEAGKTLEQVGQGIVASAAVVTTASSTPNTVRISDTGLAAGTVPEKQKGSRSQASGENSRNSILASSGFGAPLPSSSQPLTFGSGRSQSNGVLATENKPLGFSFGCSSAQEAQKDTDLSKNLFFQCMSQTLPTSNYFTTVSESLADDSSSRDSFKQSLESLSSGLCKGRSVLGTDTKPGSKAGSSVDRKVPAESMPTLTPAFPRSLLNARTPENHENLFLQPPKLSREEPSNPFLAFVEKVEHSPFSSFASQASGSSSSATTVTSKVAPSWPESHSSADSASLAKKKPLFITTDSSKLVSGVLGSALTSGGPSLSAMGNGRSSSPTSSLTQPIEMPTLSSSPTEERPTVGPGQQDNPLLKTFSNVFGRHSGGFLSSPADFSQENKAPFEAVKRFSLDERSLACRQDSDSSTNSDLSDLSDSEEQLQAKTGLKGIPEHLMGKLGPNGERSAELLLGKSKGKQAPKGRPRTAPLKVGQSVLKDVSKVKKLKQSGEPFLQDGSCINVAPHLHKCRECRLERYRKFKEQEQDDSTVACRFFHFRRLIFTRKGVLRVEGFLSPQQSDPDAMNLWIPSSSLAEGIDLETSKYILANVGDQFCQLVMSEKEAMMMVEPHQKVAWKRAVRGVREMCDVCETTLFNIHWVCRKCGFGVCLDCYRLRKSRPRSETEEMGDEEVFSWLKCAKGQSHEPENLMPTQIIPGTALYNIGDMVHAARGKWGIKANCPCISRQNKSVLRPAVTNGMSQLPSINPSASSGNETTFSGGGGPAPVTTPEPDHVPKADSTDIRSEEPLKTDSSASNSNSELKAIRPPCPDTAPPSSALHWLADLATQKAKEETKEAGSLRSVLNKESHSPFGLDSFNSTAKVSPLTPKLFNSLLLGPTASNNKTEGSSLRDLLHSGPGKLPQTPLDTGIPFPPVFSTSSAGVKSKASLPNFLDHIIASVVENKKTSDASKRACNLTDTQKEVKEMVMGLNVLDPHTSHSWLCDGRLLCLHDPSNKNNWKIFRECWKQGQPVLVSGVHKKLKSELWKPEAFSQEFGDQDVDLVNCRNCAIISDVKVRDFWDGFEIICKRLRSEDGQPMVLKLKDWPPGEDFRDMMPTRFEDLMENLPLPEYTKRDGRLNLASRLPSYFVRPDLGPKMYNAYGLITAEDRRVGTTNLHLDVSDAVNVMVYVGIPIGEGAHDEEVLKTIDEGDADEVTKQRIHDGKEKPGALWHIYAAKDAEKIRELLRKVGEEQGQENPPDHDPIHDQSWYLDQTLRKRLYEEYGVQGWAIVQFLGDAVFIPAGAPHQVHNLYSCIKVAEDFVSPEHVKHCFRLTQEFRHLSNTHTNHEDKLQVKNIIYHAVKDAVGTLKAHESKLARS

## CCCC(=O)NC(c1ccc(N(CC)CC)cc1)c1cc(Cl)c2cccnc2c1O (stereo not drawn) [58B1]
Wnt signaling; transgenic zebrafish model
  GFP expression in the tail (Wnt-responsive promoter): abolished
Wnt signaling; zebrafish
  Wnt-dependent tail regeneration: reduced
  toxicity in eye-rescue experiment: without obvious toxicity effects
Wnt signaling; zebrafish larvae
  Wnt signaling in the tail: inhibited
Wnt signaling; zebrafish, dose-responsive manner
  Wnt-induced eye defects (eye-rescue experiment): rescued
SW620
  proliferation of CRC cell lines: inhibited proliferation
[1]
  H3K4me^2: not
  H3K9Me^3: induced
  H3K9 dimethylation (H3K9Me^2): strongly induced
  H3K27Me^3: induced
KDM3B
  KDM3B inhibition: weakly inhibits
DLD1; DLD1 (APC mutation), 5d, Vi-Cell viability assay
  proliferation of CRC cell lines: inhibited proliferation
DLD1; DLD1, at low nanomolar concentrations
  proliferation of colon cancer cell line: strongly inhibited
LS174T; LS174T (β-catenin mutation), 5d, Vi-Cell viability assay
  proliferation of CRC cell lines: inhibited proliferation
LS174T; LS174T, at low nanomolar concentrations
  proliferation of colon cancer cell line: strongly inhibited
[2]
  H3K4Me^2: no effect
  levels of H3K9Me^2: significantly increased
  levels of H3K9Me^3: significantly increased
